In PubChem BioAssay (NCI):
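GI50 = concentration required for 50% inhibition of growth. TGI marks complete inhibition of growth.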

What was measured:
Assay in all cases: NCI tumour cell line growth inhibition, 384-well format
[1] = test system: HS 578T breast
[2] = test system: SF-539 CNS
[3] = test system: CAKI-1 renal
[4] = test system: HCC-2998 colon
[5] = test system: NCI-H226 lung
[6] = test system: PC-3 prostate
[7] = test system: OVCAR-3 ovarian
[8] = test system: NCI/ADR-RES ovarian
[9] = test system: U251 glioblastoma
[10] = test system: ACHN renal
[11] = test system: SK-OV-3 ovarian
[12] = test system: BT-549 breast
[13] = test system: A549 NSCLC
[14] = test system: OVCAR-8 ovarian
[15] = test system: SK-MEL-28 melanoma
[16] = test system: DU-145 prostate
[17] = test system: TK-10 renal
[18] = test system: NCI-H460 NSCLC
[19] = test system: SNB-19 CNS
[20] = test system: CCRF-CEM leukemia
[21] = test system: T-47D breast
[22] = test system: MDA-MB-468 breast
[23] = test system: K-562 leukemia
[24] = test system: LOX IMVI melanoma
[25] = test system: MDA-MB-231 breast
[26] = test system: M14 melanoma
[27] = test system: SF-295 CNS
[28] = test system: UO-31 renal
[29] = test system: HL-60(TB) leukemia
[30] = test system: 786-0 renal
[31] = test system: MDA-MB-435 melanoma
[32] = test system: UACC-257 melanoma
[33] = test system: HOP-92 NSCLC
[34] = test system: OVCAR-5 ovarian
[35] = test system: HCT-15 colon
[36] = test system: SN12C renal
[37] = test system: RPMI-8226 leukemia
[38] = test system: SK-MEL-5 melanoma
[39] = test system: SR leukemia
[40] = test system: SF-268 CNS
[41] = test system: MALME-3M melanoma
[42] = test system: NCI-H23 lung
[43] = test system: NCI-H322M lung
[44] = test system: COLO 205 colon
[45] = test system: OVCAR-4 ovarian
[46] = test system: HOP-62 NSCLC
[47] = test system: HCT-116 colon
[48] = test system: KM12 colon
[49] = test system: IGROV1 ovarian
[50] = test system: SW-620 colon
[51] = test system: MCF7 breast
[52] = test system: A498 renal
[53] = test system: HT29 colon
[54] = test system: SNB-75 CNS
[55] = test system: EKVX NSCLC
[56] = test system: MOLT-4 leukemia
[57] = test system: RXF 393 renal
[58] = test system: NCI-H522 lung

CCN1C(=O)CNc2ncc(-c3ccc(-c4ncn[nH]4)nc3C)nc21
GI50 [1]: 11.2 nM
TGI [1]: 34.7 nM
GI50 [2]: 36 nM
TGI [2]: 271 nM
GI50 [3]: 18.4 nM
TGI [3]: 53.3 nM
GI50 [4]: 52.6 nM
TGI [4]: 285 nM
GI50 [5]: 18.3 nM
TGI [5]: 69.6 nM
GI50 [6]: 10.5 nM
TGI [6]: 48.2 nM
GI50 [7]: 29.8 nM
TGI [7]: 227 nM
GI50 [8]: 37.2 nM
TGI [8]: 220 nM
GI50 [9]: 38.5 nM
TGI [9]: 217 nM
GI50 [10]: 20 nM
TGI [10]: 94 nM
GI50 [11]: 21.7 nM
TGI [11]: 184 nM
GI50 [12]: 15.8 nM
TGI [12]: 53.1 nM
GI50 [13]: 27.5 nM
TGI [13]: 181 nM
GI50 [14]: 32.7 nM
TGI [14]: 1070 nM
GI50 [15]: 23.5 nM
TGI [15]: 174 nM
GI50 [16]: 34.1 nM
TGI [16]: 240 nM
GI50 [17]: 23.4 nM
TGI [17]: 143 nM
GI50 [18]: 10.7 nM
TGI [18]: 146 nM
GI50 [19]: 64.6 nM
TGI [19]: 706 nM
GI50 [20]: 23.4 nM
TGI [20]: 135 nM
GI50 [21]: < 10 nM
TGI [21]: 34.3 nM
GI50 [22]: 16 nM
TGI [22]: 75.1 nM
GI50 [23]: 46.5 nM
TGI [23]: 1700 nM
GI50 [24]: 41.2 nM
TGI [24]: 150 nM
GI50 [25]: 23.1 nM
TGI [25]: 12700 nM
GI50 [26]: 18.7 nM
TGI [26]: 420 nM
GI50 [27]: < 10 nM
TGI [27]: 32.8 nM
GI50 [28]: 17.9 nM
TGI [28]: 91 nM
GI50 [29]: 25.9 nM
TGI [29]: 59.8 nM
GI50 [30]: 46.2 nM
TGI [30]: 375 nM
GI50 [31]: 36.3 nM
TGI [31]: 284 nM
GI50 [32]: 40.2 nM
TGI [32]: 270 nM
GI50 [33]: 19.6 nM
TGI [33]: 145 nM
GI50 [34]: 28.5 nM
TGI [34]: 2430 nM
GI50 [35]: 32 nM
TGI [35]: 1040 nM
GI50 [36]: 28.2 nM
TGI [36]: 333 nM
GI50 [37]: < 10 nM
TGI [37]: 12.3 nM
GI50 [38]: < 10 nM
TGI [38]: 39.9 nM
GI50 [39]: 11.1 nM
TGI [39]: 24.9 nM
GI50 [40]: 18.6 nM
TGI [40]: 52.6 nM
GI50 [41]: < 10 nM
TGI [41]: 41 nM
GI50 [42]: 18.4 nM
TGI [42]: 52.4 nM
GI50 [43]: 27.7 nM
TGI [43]: 507 nM
GI50 [44]: 21.8 nM
TGI [44]: 145 nM
GI50 [45]: 15.4 nM
TGI [45]: 178 nM
GI50 [46]: 16.8 nM
TGI [46]: 49 nM
GI50 [47]: 45 nM
TGI [47]: 193 nM
GI50 [48]: 28 nM
TGI [48]: 1420 nM
GI50 [49]: 12.4 nM
TGI [49]: 46.7 nM
GI50 [50]: 32 nM
TGI [50]: 1130 nM
GI50 [51]: < 10 nM
TGI [51]: 101 nM
GI50 [52]: 14.1 nM
TGI [52]: 82 nM
GI50 [53]: 42.7 nM
TGI [53]: 1740 nM
GI50 [54]: < 10 nM
TGI [54]: 37.9 nM
GI50 [55]: 19.1 nM
TGI [55]: 115 nM
GI50 [56]: 11.8 nM
TGI [56]: 27.4 nM
GI50 [57]: 22.1 nM
TGI [57]: 63.9 nM
GI50 [58]: 14 nM
TGI [58]: 134 nM
